Experimental data: patent US20190030018A1 (Celgene Corporation, priority 2017, published 2019)
Read-outs that look alike come from different tables or passages of the source.

What was measured:
[1] = system: IDH2 mutant cell line TF1-R140Q; test: Hemoglobinization / EPO induced differentiation assay with flow cytometry; type: cell-based; details: EPO induction 7 days
Procedure: (§1) Cells were plated at a density of 0.2e^6 cells/ml of 2 ml culture in 6 well plates.
FIG. 91 provides the dosing schedules used in this study.
(§2) TF1 cells were cultured in the following media: RPMI containing HEPES and L-glutamine, 10% FBS, Pen/Strep, G418 (final conc 500 μg/ml), and GM-CSF (final conc 5 ng/ml). The cells were cultured for 7 days, with or without compound treatment as described in FIG. 91.
(§3) For the hemoglobinization assay, TF1 cells were washed three times with PBS to remove residual GM-CSF then plated at (100,000 cells/ml). Cells were then induced to differentiate using EPO (2 unit/ml). Induction continued for 7 days with changing media on 4th day and adding media with fresh EPO. The cell pellets were collected and imaged for hemoglobinization content (as a surrogate for differentiation into blood lineage). Cells were pelleted, washed, stained with a panel of antibodies and analyzed by flow cytometry, using the following antibodies: […]

[2] = Dynamic vapor sorption (DVS) of solid forms; type: physicochemical; details: relative humidity increased from about 0% to about 90% RH
Procedure: In certain embodiments, Form A is characterized by dynamic vapor sorption analysis. […] In certain embodiments, Form A comprises less than 0.1% water as determined in a coulometric Karl Fischer (KF) titrator equipped with an oven sample processor set at 225° C.
In certain embodiments, Form B is characterized by dynamic vapor sorption analysis. […] In certain embodiments, Form B comprises less than 0.1% water as determined in a coulometric Karl Fischer (KF) titrator equipped with an oven sample processor set at 225° C.
In certain embodiments, Form C is characterized by dynamic vapor sorption analysis. […] In certain embodiments, Form C comprises less than 0.1% water as determined in a coulometric Karl Fischer (KF) titrator equipped with an oven sample processor set at 225° C.

[3] = physchem; type: physicochemical
Source text: “Compound 1, Form C” or “Form C” or “API”” in the Examples herein refers to polymorph Form C of 2-(4-chlorophenyl)-N-((2-(2,6-dioxopiperidin-3-yl)-1-oxoisoindolin-5-yl)methyl)-2,2-difluoroacetamide. “Compound 1, Form A” or “Form A” in the Examples herein refers to polymorph Form A of 2-(4-chlorophenyl)-N-((2-(2,6-dioxopiperidin-3-yl)-1-oxoisoindolin-5-yl)methyl)-2,2-difluoroacetamide.

[4] = system: JAK2V617F AML cell lines HEL, SET-2, MUTZ-8; test: Combination studies with JAK2 inhibitors in AML cell lines, CellTitre-Glo after 3 days; type: cell-based
[5] = system: AML cell lines; test: In vitro combination studies, CellTitre-Glo cell viability (Bliss, Loewe, HSA, CES synergy analysis); details: FLT3 and JAK inhibitors in combination with Compound 1 in MOLM-13 and NOMO-1 cell lines
[6] = system: IL3 independent JAK2 V617F BaF3 cells; test: Combination studies with JAK2 inhibitors in engineered BaF3 cells, CellTitre-Glo after 3 days; type: cell-based; details: compared to the IL3 dependent lines
Procedure: Everolimus was included as a control. The cell viability was then measured by CellTitre-Glo® after 3 days.

[7] = patients, literature value; read-out: clinical Cmax; cited from earlier work
[8] = system: IDH2 mutant cell line TF1-R140Q; test: Proliferation (total, HSC and progenitor cell count) in the TF1 assay; type: cell-based
Procedure: as §1, §2, §3

[9] = system: GSPT1 expression, mTOR activation, Mcl-1 expression and Caspase-3 cleavage in AML cells; test: Immunoblot analysis of AML cells treated with Compound 1 and everolimus; type: cell-based
Source text: Whole cell extracts were collected and subjected to immunoblot analysis.

[10] = system: HNT-34; test: In vitro combination studies, CellTitre-Glo cell viability; details: HNT-34; in combination with Compound 1
[11] = system: HL-60; test: as above; details: HL-60; in combination with Compound 1
[12] = system: NOMO-1; test: as above; details: NOMO-1; in combination with Compound 1
[13] = system: OCT-AML-3; test: as above; details: OCI-AML-3; in combination with Compound 1
[14] = system: human QGP1 pancreatic somatostatinoma xenografts
[15] = system: primary human tumor xenograft model GA0087; test: HuPrime gastric cancer xenograft GA0087 model, in vivo efficacy; parameters: species or system female BALB/c nude mice; details: single agent, 1.25 mg/kg and 5 mg/kg
Source text: Tumor fragments from stock mice were harvested and used for inoculation into mice. Each mouse was inoculated subcutaneously at the right flank with primary human tumor xenograft model GA0087 tumor fragment (P7, 2-3 mm in diameter) for tumor development. […] After tumor inoculation, the animals were checked daily for morbidity and mortality. At the time of routine monitoring, the animals were checked for any effects of tumor growth and treatments on normal behavior such as mobility, food and water consumption, body weight gain/loss, eye/hair matting and any other abnormal effect. Death of euthanized mouse was recorded. All groups were terminated on Day 40. Three tumors in each group, with tumor volume near median of each group were collected. Plasma of the same mice were collected. For comparison among three or more groups, one-way ANOVA was performed followed by multiple comparison procedures. All data were analyzed using SPSS 18.0. P values <0.05 is considered to be statistically significant.

[16] = system: ML-2; test: In vitro combination studies, CellTitre-Glo cell viability; details: ML-2; in combination with Compound 1
[17] = system: KG-1; test: as above; details: KG-1; in combination with Compound 1
[18] = system: GSPT1 and mTORC1 effectors in BON cells; test: Western blot of BON cell lysates after 120 h treatment; type: cell-based
Procedure: BON cells were cultured in DMEM: F12K media containing 10% fetal bovine serum and penicillin/streptomycin antibiotics. […] Cells were harvested and probed with antibodies for western blots and imaged using a Li-Cor Odyssey imaging system. All total and phosphorylated antibodies were obtained from Cell Signaling Technology.

[19] = system: F-36-P; test: In vitro combination studies, CellTitre-Glo cell viability; details: F-36-P; in combination with Compound 1
[20] = GA0087 PDX model ex vivo 3D methylcellulose CellTiter-Glo cell viability assay (IC50, matrix combination, Combination Index); details: read-out: Absolute IC50
[21] = system: stomach cancer cell line GA0087; test: as above
[22] = system: MOLM-13; test: In vitro combination studies, CellTitre-Glo cell viability; details: MOLM-13; in combination with Compound 1
[23] = system: MV-4-11; test: as above; details: MV-4-11; in combination with Compound 1
[24] = system: OCI-AML-2; test: as above; details: OCI-AML-2; in combination with Compound 1

For `Nc1nc(Nc2ccnc(C(F)(F)F)c2)nc(-c2cccc(C(F)(F)F)n2)n1` [Compound 2, 6-(6-(trifluoromethyl)pyridin-2-yl)-N^2-(2-(trifluoromethyl)pyridin-4-yl)-1,3,5-triazine-2,4-diamine], the hemoglobin expression [1] was “increase in hemoglobin expression”.

For `O=C1CCC(N2Cc3cc(CNC(=O)C(F)(F)c4ccc(Cl)cc4)ccc3C2=O)C(=O)N1` (stereo not drawn) [Form A, 2-(4-chlorophenyl)-N-((2-(2,6-dioxopiperidin-3-yl)-1-oxoisoindolin-5-yl)methyl)-2,2-difluoroacetamide], the “water uptake (DVS)” value [2] was “about 1.2 % w/w”.

In the case of `O=C1CCC(N2Cc3cc(CNC(=O)C(F)(F)c4ccc(Cl)cc4)ccc3C2=O)C(=O)N1` (stereo not drawn) [Form B, 2-(4-chlorophenyl)-N-((2-(2,6-dioxopiperidin-3-yl)-1-oxoisoindolin-5-yl)methyl)-2,2-difluoroacetamide], the “water uptake (DVS)” value [2] is reported as “about 1.4 % w/w”.

With `O=C1CCC(N2Cc3cc(CNC(=O)C(F)(F)c4ccc(Cl)cc4)ccc3C2=O)C(=O)N1` (stereo not drawn) [Form C, 2-(4-chlorophenyl)-N-((2-(2,6-dioxopiperidin-3-yl)-1-oxoisoindolin-5-yl)methyl)-2,2-difluoroacetamide] the “water uptake (DVS)” value [2] was “about 0.6 % w/w” and the “thermodynamic stability among the crystal forms” value [3] was “most thermodynamically stable anhydrate”.

For `C[C@H](Nc1cc(-c2cnn(C)c2)cc(Nc2cnccn2)n1)c1ccc(F)cc1` [NS-018], the “cell viability, single agent” value [4] was “inhibit cell viability”, the Synergy [5] was “Yes” and the single agent sensitivity [6] was “more sensitive”. For the same compound, the Cmax [7] was 2570 nM.

In the case of `CC(C)(O)CNc1nc(Nc2ccnc(C(F)(F)F)c2)nc(-c2cccc(C(F)(F)F)n2)n1` [enasidenib, reference compound], the hemoglobin expression [1] is reported as “increase in hemoglobin expression” and the “proliferation (total, HSC and progenitor cell count)” value [8] is reported as “mild growth promoting effect”.

With `CO[C@H]1C[C@@H]2CC[C@@H](C)[C@@](O)(O2)C(=O)C(=O)N2CCCC[C@H]2C(=O)O[C@H]([C@H](C)C[C@@H]2CC[C@@H](OCCO)[C@H](OC)C2)CC(=O)[C@H](C)/C=C(\C)[C@@H](O)[C@@H](OC)C(=O)[C@H](C)C[C@H](C)/C=C/C=C/C=C/1C` [everolimus, reference compound] the “GSPT1 expression/degradation, Mcl-1 loss, Caspase-3 cleavage” value [9] was “minimal effect”, the “activation of the mTOR pathway (phosphorylation of S6K1 and 4E-BP1)” value [9] was “significantly blocked the activation of the mTOR pathway” and the “Synergy analysis for combinations with Compound 1” value (from here on “Synergy analysis for combinations”) [10] was “No”. The “Synergy analysis for combinations” value [11] was “No”, the “Synergy analysis for combinations” value [12] was “No” and the “Synergy analysis for combinations” value [13] was “Yes”. The tumor growth inhibition ([14]; 3 mg/kg i.p. qd x 21, Day 52) was 41%, the tumor growth inhibition ([14]; 10 mg/kg i.p. qd x 21, Day 52) was 39% and the anti-tumor activity [15] was “moderate anti-tumor activity”. For the same compound, the “Synergy analysis for combinations” value [16] was “Yes”, the “Synergy analysis for combinations” value [17] was “No” and the “effect on mTORC1 effectors (p4EBP1, phosphorylation of S6)” value [18] was “dramatically decreased phosphorylation of S6 and phosphorylation of 4EBP1”. The single agent sensitivity [6] was “more sensitive”, the “Synergy analysis for combinations” value [19] was “Yes” and the IC50 ([20]; GA0087-1st experiment) was 6.1 nM. For the same compound, the IC50 ([20]; GA0087-2nd experiment) was 7.5 nM, the “Maximal Inhibition” value ([21]; GA0087-1st experiment) was 73.15% and the “Maximal Inhibition” value ([21]; GA0087-2nd experiment) was 72.80%. For the same compound, the “Synergy analysis for combinations” value [22] was “Yes”, the “Synergy analysis for combinations” value [23] was “Yes” and the “Synergy analysis for combinations” value [24] was “Yes”.

For `N#CC[C@H](C1CCCC1)n1cc(-c2ncnc3[nH]ccc23)cn1` [ruxolitinib], the Cmax [7] is listed as 500 to 1000 nM.
